Target: PIK3CA (human) (UniProt P42336)
Test: Assessment of PIK3CA Kinase Activity

Chain of PIK3CA (human) (P42336 whole entry, looked up): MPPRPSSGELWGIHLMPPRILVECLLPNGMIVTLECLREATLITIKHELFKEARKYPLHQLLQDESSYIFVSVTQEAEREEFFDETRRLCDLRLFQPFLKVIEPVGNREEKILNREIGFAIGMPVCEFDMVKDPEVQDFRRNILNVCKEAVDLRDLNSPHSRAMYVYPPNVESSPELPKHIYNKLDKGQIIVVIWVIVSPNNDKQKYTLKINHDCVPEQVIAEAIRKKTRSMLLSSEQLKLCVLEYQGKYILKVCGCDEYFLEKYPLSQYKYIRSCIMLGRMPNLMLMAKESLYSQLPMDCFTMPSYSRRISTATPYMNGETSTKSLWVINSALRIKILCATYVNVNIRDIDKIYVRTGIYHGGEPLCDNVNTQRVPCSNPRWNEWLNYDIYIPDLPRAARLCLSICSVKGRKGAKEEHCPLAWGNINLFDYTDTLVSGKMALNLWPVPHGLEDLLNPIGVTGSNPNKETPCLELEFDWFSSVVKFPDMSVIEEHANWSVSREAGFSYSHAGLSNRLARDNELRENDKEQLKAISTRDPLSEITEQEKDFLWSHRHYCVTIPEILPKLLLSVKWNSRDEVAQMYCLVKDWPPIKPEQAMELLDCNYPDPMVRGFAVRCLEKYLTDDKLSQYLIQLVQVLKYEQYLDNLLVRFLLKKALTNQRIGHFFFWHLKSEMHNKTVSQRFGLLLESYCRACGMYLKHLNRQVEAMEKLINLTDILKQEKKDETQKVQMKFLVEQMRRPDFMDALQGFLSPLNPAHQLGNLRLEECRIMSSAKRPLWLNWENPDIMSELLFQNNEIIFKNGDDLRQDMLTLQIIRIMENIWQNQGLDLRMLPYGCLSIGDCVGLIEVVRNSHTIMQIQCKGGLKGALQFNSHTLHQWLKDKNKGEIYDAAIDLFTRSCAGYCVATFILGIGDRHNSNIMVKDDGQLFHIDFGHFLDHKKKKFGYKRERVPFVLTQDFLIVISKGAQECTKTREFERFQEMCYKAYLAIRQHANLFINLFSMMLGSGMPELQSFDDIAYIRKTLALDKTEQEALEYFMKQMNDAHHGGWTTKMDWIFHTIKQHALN

| SMILES | IC50 |
| --- | --- |
| CN(C)C(=O)c1ccc(NC(=O)Nc2ccc(-c3nc(N4CCOCC4)c4ncc(-c5cnc(N)nc5)cc4n3)cc2)cc1 | < 50 nM |
| CN(C)C(=O)c1ccc(NC(=O)Nc2ccc(-c3nc(N4CCOCC4)c4cccc(-c5cccnc5F)c4n3)cc2)cc1 | 50 to 200 nM |
| CN(C)C(=O)c1ccc(NC(=O)Nc2ccc(-c3nc(N4CCOCC4)c4ncc(-c5cccnc5F)cc4n3)cc2)cc1F | < 50 nM |
| CNC(=O)c1ccc(NC(=O)Nc2ccc(-c3nc(N4CCOCC4)c4ccc(-c5cccc(S(C)(=O)=O)c5)cc4n3)cc2)cc1 | < 50 nM |
| COc1ncc(-c2ccc3c(N4CCOCC4)nc(-c4ccc(NC(=O)Nc5ccc(C(=O)N(C)C)c(F)c5)cc4)nc3c2)cn1 | < 50 nM |
| CN(C)C(=O)c1ccc(NC(=O)Nc2ccc(-c3nc(N4CCOCC4)c4ccc(-c5cccnc5F)cc4n3)cc2F)cc1 | < 50 nM |
| CN(C)C(=O)c1ccc(NC(=O)Nc2ccc(-c3nc(N4CCOCC4)c4cccc(-c5cccc(O)c5)c4n3)cc2)cc1 | 50 to 200 nM |
| CN(C)C(=O)c1ccc(NC(=O)Nc2ccc(-c3nc(N4CCOCC4)c4cc(F)c(-c5cccnc5)cc4n3)cc2)cc1 | < 50 nM |
| CN1CCN(C(=O)c2ccc(NC(=O)Nc3ccc(-c4nc(N5CCOCC5)c5ccc(-c6ccncc6)cc5n4)cc3F)cc2)CC1 | 50 to 200 nM |
| Cc1ccc(-c2ccc3c(N4CCOCC4)nc(-c4ccc(NC(=O)Nc5ccc(C(=O)N(C)C)nc5)c(F)c4)nc3c2)o1 | 50 to 200 nM |
| CC(=O)Nc1cncc(-c2ccc3c(N4CCOCC4)nc(-c4ccc(NC(=O)Nc5ccc(C(=O)N(C)C)cc5)cc4)nc3c2)c1 | < 50 nM |
| CN(C)C(=O)c1ccc(NC(=O)Nc2ccc(-c3nc(N4CCOCC4)c4ncc(-c5cccnc5)cc4n3)c(F)c2)cc1 | < 50 nM |
| Cc1ccc(-c2ccc3c(N4CCOCC4)nc(-c4ccc(NC(=O)Nc5ccc(C(=O)N(C)C)c(F)c5)cc4)nc3c2)o1 | 50 to 200 nM |
| CN(C)C(=O)c1ccc(NC(=O)Nc2ccc(-c3nc(N4CCOCC4)c4cc(F)c(-c5cccnc5)cc4n3)cc2F)cc1 | 50 to 200 nM |
| CN(C)C(=O)c1ccc(NC(=O)Nc2ccc(-c3nc(N4CCOCC4)c4ccc(-c5cccnc5)cc4n3)cc2F)cc1 | < 50 nM |
| CN(C)C(=O)c1ccc(NC(=O)Nc2ccc(-c3nc(N4CCOCC4)c4ccc(-c5cccc(S(C)(=O)=O)c5)cc4n3)cc2)cn1 | 50 to 200 nM |
| CN(C)C(=O)c1ccc(NC(=O)Nc2ccc(-c3nc(N4CCOCC4)c4ccc(-c5ccc(C#N)o5)cc4n3)cc2)cc1 | < 50 nM |
| COc1cccc(-c2ccc3c(N4CCOCC4)nc(-c4ccc(NC(=O)Nc5ccc(C(=O)N(C)C)cc5)cc4)nc3c2)n1 | 50 to 200 nM |
| CN(C)C(=O)c1ccc(NC(=O)Nc2ccc(-c3nc(N4CCOCC4)c4cc(F)c(-c5cncnc5)cc4n3)cc2F)cc1 | < 50 nM |
| COc1ncc(-c2ccc3c(N4CCOCC4)nc(-c4ccc(NC(=O)Nc5ccc(C(=O)N(C)C)cc5)c(F)c4)nc3c2)cn1 | 50 to 200 nM |
| Cc1ccc(-c2ccc3c(N4CCOCC4)nc(-c4ccc(NC(=O)Nc5ccc(C(=O)N6CCN(C)CC6)cc5)cc4)nc3c2)o1 | 50 to 200 nM |
| CN1CCN(C(=O)c2ccc(NC(=O)Nc3ccc(-c4nc(N5CCOCC5)c5cc(F)c(-c6cccnc6)cc5n4)cc3F)cc2)CC1 | < 50 nM |
| Cc1ccc(-c2ccc3c(N4CCOCC4)nc(-c4ccc(NC(=O)Nc5ccc(C(=O)N6CC[C@@H](N(C)C)C6)cc5)cc4)nc3c2)o1 | 50 to 200 nM |
| CN(C)C(=O)c1ccc(NC(=O)Nc2ccc(-c3nc(N4CCOCC4)c4ccc(-c5ccc(C(C)(C)O)o5)cc4n3)c(F)c2)cc1 | 50 to 200 nM |

| SMILES | IC50 |
| --- | --- |
| CN(C)C(=O)c1ccc(NC(=O)Nc2ccc(-c3nc(N4CCOCC4)c4ccc(-c5ccnnc5)cc4n3)cc2)cc1 | 50 to 200 nM |
| CN(C)C(=O)c1ccc(NC(=O)Nc2ccc(-c3nc(N4CCOCC4)c4ncc(-c5cnc(N)nc5)cc4n3)cc2F)cc1 | < 50 nM |
| COc1ccc(-c2ccc3c(N4CCOCC4)nc(-c4ccc(NC(=O)Nc5ccc(C(=O)N(C)C)cc5)cc4)nc3c2)cn1 | < 50 nM |
| Cc1ccc(-c2ccc3c(N4CCOCC4)nc(-c4ccc(NC(=O)Nc5ccc(C(=O)N6CC[C@H](N(C)C)C6)cc5)cc4)nc3c2)o1 | 50 to 200 nM |
| Cc1ccc(-c2ccc3c(N4CCOCC4)nc(-c4ccc(NC(=O)Nc5ccc(C(=O)N(C)C)cc5)cc4F)nc3c2)cn1 | < 50 nM |
| CN(C)C(=O)c1ccc(NC(=O)Nc2ccc(-c3nc(N4CCOCC4)c4ccc(-c5cncnc5)cc4n3)cn2)c(F)c1 | < 50 nM |
| CN(C)C(=O)c1ccc(NC(=O)Nc2ccc(-c3nc(N4CCOCC4)c4cc(F)c(-c5cccc(S(C)(=O)=O)c5)cc4n3)cc2)cc1 | < 50 nM |
| CN1CCN(C(=O)c2ccc(NC(=O)Nc3ccc(-c4nc(N5CCOCC5)c5ncc(-c6cncnc6)cc5n4)cc3)cc2)CC1 | < 50 nM |
| Cc1nn(C)c(C)c1-c1ccc2c(N3CCOCC3)nc(-c3ccc(NC(=O)Nc4ccc(C(=O)N(C)C)cc4)cc3)nc2c1 | < 50 nM |
| CC1CN(c2nc(-c3ccc(NC(=O)Nc4ccc(C(=O)N(C)C)cc4)c(F)c3)nc3cc(-c4cncnc4)ccc23)CCO1 (configuration not stated) | 50 to 200 nM |
| CN(C)C(=O)c1ccc(NC(=O)Nc2ccc(-c3nc(N4CCOCC4)c4cc(F)c(-c5cccnc5F)cc4n3)cn2)cc1 | < 50 nM |
| CN(C)CCNC(=O)c1ccc(NC(=O)Nc2ccc(-c3nc(N4CCOCC4)c4ccc(-c5cncnc5)cc4n3)cc2)cc1 | 50 to 200 nM |
| CC(O)c1ccc(-c2cnc3c(N4CCOCC4)nc(-c4ccc(NC(=O)Nc5ccc(C(=O)N(C)C)cc5)c(F)c4)nc3c2)o1 (configuration not stated) | < 50 nM |
| COc1ncc(-c2ccc3c(N4CCOCC4)nc(-c4ccc(NC(=O)Nc5ccc(C(=O)N(C)C)cc5)cc4)nc3c2)cn1 | < 50 nM |
| Cc1ccc(-c2ccc3c(N4CCOCC4)nc(-c4ccc(NC(=O)Nc5ccc(C(=O)N(C)C)cc5)cc4)nc3c2)cn1 | < 50 nM |
| CNC(=O)c1ccc(NC(=O)Nc2ccc(-c3nc(N4CCOCC4)c4ccc(-c5cncnc5)cc4n3)cc2F)cc1 | 50 to 200 nM |
| CC(O)c1ccc(-c2ccc3c(N4CCOCC4)nc(-c4ccc(NC(=O)Nc5ccc(C(=O)N(C)C)cc5)cc4F)nc3c2)o1 (configuration not stated) | 50 to 200 nM |
| CN(C)C(=O)c1ccc(NC(=O)Nc2ccc(-c3nc(N4CCOCC4)c4ccc(-c5cccnc5F)cc4n3)cc2)cc1 | 50 to 200 nM |
| CN(C)C(=O)c1ccc(NC(=O)Nc2ccc(-c3nc(N4CCOCC4)c4ccc(-c5ccco5)cc4n3)c(F)c2F)cc1 | 50 to 200 nM |
| Cc1ccc(-c2cnc3c(N4CCOCC4)nc(-c4ccc(NC(=O)Nc5ccc(C(=O)N(C)C)cc5)cc4)nc3c2)o1 | < 50 nM |
| CN(C)C(=O)c1ccc(NC(=O)Nc2ccc(-c3nc(N4CCOCC4)c4ccc(-c5ccccn5)cc4n3)cc2)c(F)c1 | < 50 nM |
| COc1cc2nc(-c3ccc(NC(=O)Nc4ccc(C(=O)N(C)C)cc4)cc3)nc(N3CCOCC3)c2cc1OC | 50 to 200 nM |
| CN(C)C(=O)c1ccc(NC(=O)Nc2ccc(-c3nc(N4CCOCC4)c4ccc(-c5cncc(S(C)(=O)=O)c5)cc4n3)cc2)cc1 | < 50 nM |
| CN(C)C(=O)c1ccc(NC(=O)Nc2ccc(-c3nc(N4CCOCC4)c4ncc(-c5cncnc5)cc4n3)cc2F)cc1 | < 50 nM |

| SMILES | IC50 |
| --- | --- |
| CN(C)[C@H]1CCN(C(=O)c2ccc(NC(=O)Nc3ccc(-c4nc(N5CCOCC5)c5ncc(-c6cccnc6F)cc5n4)cc3F)cc2)C1 | < 50 nM |
| CNC(=O)c1ccc(NC(=O)Nc2ccc(-c3nc(N4CCOCC4)c4ncc(-c5cnn(C)c5)cc4n3)cc2)cc1 | < 50 nM |
| CC(=O)Nc1ccc(NC(=O)Nc2ccc(-c3nc(N4CCOCC4)c4ncc(-c5cnn(C)c5)cc4n3)cc2)cc1 | < 50 nM |
| CN(C)C(=O)c1ccc(NC(=O)Nc2ccc(-c3nc(N4CCOCC4)c4ccc(-c5cccnc5F)cc4n3)c(F)c2)cc1 | < 50 nM |
| CC1CN(c2nc(-c3ccc(NC(=O)Nc4ccc(C(=O)N(C)C)cc4)cc3)nc3cc(-c4cncnc4)ccc23)CCO1 (configuration not stated) | < 50 nM |
| CN(C)CCNC(=O)c1ccc(NC(=O)Nc2ccc(-c3nc(N4CCOCC4)c4ccc(-c5ccco5)cc4n3)cc2)cc1 | < 50 nM |
| CNC(=O)c1ccc(NC(=O)Nc2ccc(-c3nc(N4CCOCC4)c4ccc(-c5ccco5)cc4n3)cc2)cc1 | < 50 nM |
| Cn1cc(-c2cnc3c(N4CCOCC4)nc(-c4ccc(NC(=O)Nc5ccc(C(N)=O)cc5)cc4)nc3c2)cn1 | < 50 nM |
| CNC(=O)c1ccc(NC(=O)Nc2ccc(-c3nc(N4CCOCC4)c4ccc(-c5cncnc5)cc4n3)cc2)cc1 | 50 to 200 nM |
| CN(C)C(=O)c1ccc(NC(=O)Nc2ccc(-c3nc(N4CCOCC4)c4ccc(-c5ccc(N)nc5)cc4n3)cc2)c(F)c1 | 50 to 200 nM |
| CN(C)C(=O)c1ccc(NC(=O)Nc2ccc(-c3nc(N4CCOCC4)c4ccc(-c5cnc(N(C)C)nc5)cc4n3)cc2F)cc1 | 50 to 200 nM |
| CN(C)C(=O)c1ccc(NC(=O)Nc2ccc(-c3nc(N4CCOCC4)c4cccc(-c5ccc(F)nc5)c4n3)cc2)cc1 | 50 to 200 nM |
| CN(C)C(=O)c1ccc(NC(=O)Nc2ccc(-c3nc(N4CCOCC4)c4ccc(-c5ccncc5)cc4n3)cc2F)cc1 | 50 to 200 nM |
| Cc1ccc(-c2cccc3c(N4CCOCC4)nc(-c4ccc(NC(=O)Nc5ccc(C(=O)N(C)C)cc5)cc4)nc23)o1 | 50 to 200 nM |
| N[C@@H]1CCN(C(=O)c2ccc(NC(=O)Nc3ccc(-c4nc(N5CCOCC5)c5ccc(-c6cncnc6)cc5n4)cc3F)cc2)C1 | < 50 nM |
| COc1ncc(-c2ccc3c(N4CCOCC4)nc(-c4ccc(NC(=O)Nc5ccc(C(=O)N(C)C)cc5F)cc4)nc3c2)cn1 | 50 to 200 nM |
| COc1ncc(-c2cnc3c(N4CCOCC4)nc(-c4ccc(NC(=O)Nc5ccc(C(=O)N(C)C)cc5)cc4F)nc3c2)cn1 | < 50 nM |
| CN(C)CCNC(=O)c1ccc2c(N3CCOCC3)nc(-c3ccc(NC(=O)Nc4ccc(C(=O)N(C)C)cc4)cc3)nc2c1 | 50 to 200 nM |
| CN(C)C(=O)c1ccc(NC(=O)Nc2ccc(-c3nc(N4CCOCC4)c4cc(F)c(-c5cccnc5)cc4n3)cn2)cc1 | < 50 nM |
| COc1ncc(-c2cnc3c(N4CCOCC4)nc(-c4ccc(NC(=O)Nc5ccc(C(=O)N(C)C)cc5)cc4)nc3c2)cn1 | < 50 nM |
| Cc1noc(C)c1-c1ccc2c(N3CCOCC3)nc(-c3ccc(NC(=O)Nc4ccc(C(=O)N5CC[C@H](N(C)C)C5)cc4)c(F)c3)nc2c1 | 50 to 200 nM |
| COc1cccc(-c2ccc3c(N4CCOCC4)nc(-c4ccc(NC(=O)Nc5ccc(C(=O)N(C)C)cc5)cc4)nc3c2)c1 | 50 to 200 nM |
| CN(C)C(=O)c1ccc(NC(=O)Nc2ccc(-c3nc(N4CCOCC4)c4ccc(-c5cncnc5)cc4n3)c(F)c2F)cc1 | 50 to 200 nM |
| CN(C)CCNC(=O)c1ccc(-c2ccc3c(N4CCOCC4)nc(-c4ccc(NC(=O)Nc5ccc(C(=O)N(C)C)cc5)cc4)nc3c2)o1 | 50 to 200 nM |

Source: the Kinase Knowledgebase extract (Sharma et al. 2016)
